ChEMBL document CHEMBL1150549, “Synthesis and antifungal activity of new azole derivatives containing an oxathiane ring” (1996)
Converted amounts (≈) assume the structure as drawn.

How the values were obtained:
Format in all cases: functional
Aspergillus fumigatus = experiment: In vitro antifungal activity against Aspergillus fumigatus MTU6001
Candida albicans = experiment: In vitro antifungal activity against Candida albicans KB-8
Mus musculus [1] = experiment: In vivo antifungal activity against Aspergillus fumigatus in mice at a dose of 50 mg/kg upon oral administration
Mus musculus [2] = experiment: In vivo antifungal activity against Candida albicans in mice at a dose of 10 mg/kg upon oral administration
Mus musculus [3] = experiment: In vivo antifungal activity against Aspergillus fumigatus in mice at a dose of 100 mg/kg upon oral administration

Row | SMILES | MIC (Aspergillus fumigatus) | MIC (Candida albicans) | Mean survival days (Mus musculus [1]) | Mean survival days (Mus musculus [2]) | Mean survival days (Mus musculus [3])
1 | CC1COC(Cn2cncn2)(c2ccc(F)cc2F)C(C)(C)S1(=O)=O (single isomer, unassigned) | 12.5 µg/mL (≈ 33.7 µM) | 0.39 µg/mL (≈ 1.05 µM) | 9.4 days | 10 days | 
2 | CC1(C)SCCOC1(Cn1cncn1)c1ccc(F)cc1F (single isomer, unassigned) | 3.13 µg/mL (≈ 9.62 µM) | 0.1 µg/mL (≈ 0.307 µM) | 9.8 days | 8.6 days | 
3 | C[C@@H]1SCCOC1(Cn1cncn1)c1ccc(F)cc1F (single isomer, unassigned) | 25 µg/mL (≈ 80.3 µM) | 0.1 µg/mL (≈ 0.321 µM) | 1.9 days | 2 days | 
4 | CC1(C)C(Cn2cncn2)(c2ccc(F)cc2F)OCCS1(=O)=O (single isomer, unassigned) | 100 µg/mL (≈ 280 µM) | 3.13 µg/mL (≈ 8.76 µM) | 10 days | 9.4 days | 
5 | C[C@H]1C(Cn2cncn2)(c2ccc(F)cc2F)OCCS1(=O)=O (single isomer, unassigned) | > 100 µg/mL | 3.13 µg/mL (≈ 9.12 µM) | 1.8 days | 1.2 days | 
6 | C[C@@H]1C(Cn2cncn2)(c2ccc(F)cc2F)OCCS1(=O)=O (single isomer, unassigned) | > 100 µg/mL | 6.25 µg/mL (≈ 18.2 µM) | 1.1 days | 6.9 days | 
7 | C[C@H]1SCCOC1(Cn1cncn1)c1ccc(F)cc1F (single isomer, unassigned) | 50 µg/mL (≈ 161 µM) | 0.2 µg/mL (≈ 0.642 µM) | 1.5 days | 4.9 days | 
8 | OC(Cn1cncn1)(Cn1cncn1)c1ccc(F)cc1F [FLUCONAZOLE] | 400 µg/mL (≈ 1310 µM) | 0.78 µg/mL (≈ 2.55 µM) |  | 10 days | 2.8 days
9 | C[C@H]([C@](O)(Cn1cncn1)c1ccc(F)cc1F)S(C)(=O)=O [GENACONAZOLE] | 25 µg/mL (≈ 75.5 µM) | 0.39 µg/mL (≈ 1.18 µM) | 10 days | 10 days | 
